# Assay results taken from ChEMBL document CHEMBL4321839, “Structure-activity relationships (SAR) of triazine derivatives: Promising antimicrobial agents” (Eur J Med Chem, 2020).
# What was measured:
# Bacillus subtilis [1] = experiment: Antimicrobial activity against Bacillus subtilis NCIM-2063 assessed as reduction in microbial growth after 24 hrs by CLSI based broth dilution method; type: functional; settings: NCIM-2063, 24 h
# Escherichia coli [2] = experiment: Antimicrobial activity against Escherichia coli NCIM-2065 assessed as reduction in microbial growth after 24 hrs by CLSI based broth dilution method; type: functional; settings: NCIM-2065, 24 h
# Candida albicans = experiment: Antifungal activity against Candida albicans NCIM-3102 at 18 to 24 hrs by CLSI based alamar blue assay; type: functional
# Nakaseomyces glabratus = experiment: Antifungal activity against Candida glabrata NCIM-3266 at 18 to 24 hrs by CLSI based alamar blue assay; type: functional
# Cryptococcus neoformans = experiment: Antifungal activity against Cryptococcus neoformans NCIM-3542 at 72 hrs by CLSI based alamar blue assay; type: functional; settings: NCIM-3542, 72 h
# Aspergillus niger = experiment: Antifungal activity against Aspergillus niger NCIM-620 at 72 hrs by CLSI based alamar blue assay; type: functional; settings: NCIM-620, 72 h
# Pseudomonas aeruginosa [3] = experiment: Antimicrobial activity against Pseudomonas aeruginosa NCIM-2036 after 24 hrs by CLSI based broth dilution method; type: functional; settings: NCIM-2036, 24 h
# Staphylococcus aureus [4] = experiment: Antimicrobial activity against methicillin-resistant Staphylococcus aureus clinical isolate MRSA1 assessed as reduction in microbial growth by two-fold serial dilution method; type: functional
# Klebsiella pneumoniae = experiment: Antimicrobial activity against multi drug-resistant Klebsiella pneumoniae assessed as reduction in microbial growth by two-fold serial dilution method; type: functional
# [5] = Cytotoxicity against African green monkey Vero cells incubated for 72 hrs by MTT assay; type: cell-based; settings: chlorocebus sabaeus
# Staphylococcus aureus [6] = experiment: Antimicrobial activity methicillin-resistant against Staphylococcus aureus; type: functional
# Escherichia coli [7] = experiment: Antimicrobial activity multi drug-resistant against Escherichia coli; type: functional
# Escherichia coli [8] = experiment: Antimicrobial activity against Escherichia coli ATCC 25922 assessed as reduction in microbial growth after 24 to 48 hrs by microdilution susceptibility test; type: functional
# Staphylococcus aureus [9] = experiment: Antimicrobial activity against Staphylococcus aureus […] assessed as reduction in microbial growth after 24 to 48 hrs by microdilution susceptibility test; type: functional
# Proteus vulgaris = experiment: Antimicrobial activity against Proteus vulgaris NCIM-2027 assessed as reduction in microbial growth after 24 hrs by CLSI based broth dilution method; type: functional; settings: NCIM-2027, 24 h
# Bacillus cereus = experiment: Antimicrobial activity against Bacillus cereus NCIM-2156 assessed as zone of inhibition at 5 ug after 24 hrs by disk diffusion method; type: functional; settings: NCIM-2156, 24 h, read-out: IZ
# Pseudomonas aeruginosa [10] = experiment: Antimicrobial activity against Pseudomonas aeruginosa NCIM-2036 assessed as zone of inhibition at 5 ug after 24 hrs by disk diffusion method; type: functional; settings: NCIM-2036, 24 h, read-out: IZ
# Staphylococcus aureus [11] = experiment: Antimicrobial activity against Staphylococcus aureus NCIM-2079 assessed as zone of inhibition at 5 ug after 24 hrs by disk diffusion method; type: functional; settings: NCIM-2079, 24 h, read-out: IZ
# Bacillus subtilis [12] = experiment: Antimicrobial activity against Bacillus subtilis NCIM-2063 assessed as zone of inhibition at 5 ug after 24 hrs by disk diffusion method; type: functional; settings: NCIM-2063, 24 h, read-out: IZ
# Lacticaseibacillus casei = experiment: Antibacterial activity against Lactobacillus casei NCIM-2651 assessed as reduction in microbial growth incubated for 24 hrs by broth dilution method; type: functional; settings: NCIM-2651, 24 h
smiles,measurement,setting,value
O=[N+]([O-])c1cccc(Nc2nc(NC3=NC(c4ccccc4O)=CC(c4ccccc4[N+](=O)[O-])S3)nc(Nc3cccc([N+](=O)[O-])c3)n2)c1 (stereo not given),MIC,Bacillus subtilis [1],6.25 µg/mL
same,MIC,Escherichia coli [2],12.5 µg/mL
OC(Cn1cncn1)(Cn1cncn1)c1ccc(F)cc1F [FLUCONAZOLE],MIC,Candida albicans,0.63 µg/mL
same,MIC,Nakaseomyces glabratus,0.63 µg/mL
Clc1ccc(-c2csc(Nc3nc(N(c4ccccc4)c4ccccc4)nc(N(c4ccccc4)c4ccccc4)n3)n2)cc1,MIC,Candida albicans,0.63 µg/mL
c1ccc(-c2csc(Nc3nc(N4CCOCC4)nc(N4CCOCC4)n3)n2)cc1,MIC,Candida albicans,0.63 to 5 µg/mL
same,MIC,Nakaseomyces glabratus,0.63 to 5 µg/mL
same,MIC,Cryptococcus neoformans,0.63 to 5 µg/mL
same,MIC,Aspergillus niger,0.63 to 5 µg/mL
CC1=NN(c2ccccc2)C(C)C1Nc1nnc(Sc2nc(Nc3ccc(Cl)cc3)nc(Nc3ccc(Cl)cc3)n2)s1 (stereo not given),MIC,Pseudomonas aeruginosa [3],6.25 µg/mL
Nc1nc(N)nc(Nc2ccc(C(=O)N/N=C/c3ccco3)cc2)n1,MIC,Staphylococcus aureus [4],3.12 µg/mL
same,MIC,Klebsiella pneumoniae,12.5 µg/mL
same,CC50 at 72 h,[5],125 µg/mL
Clc1ccc(-c2csc(Nc3nc(N4CCOCC4)nc(N4CCOCC4)n3)n2)cc1,MIC,Candida albicans,0.63 to 5 µg/mL
same,MIC,Nakaseomyces glabratus,0.63 to 5 µg/mL
same,MIC,Cryptococcus neoformans,0.63 to 5 µg/mL
same,MIC,Aspergillus niger,0.63 to 5 µg/mL
O=C(O)C1=CC(C2CC2)C2=C(CC(F)C3=NN=C(c4cccc(Cl)c4)CN32)C1=O (stereo not given),MIC,Staphylococcus aureus [6],8 µg/mL
same,MIC,Escherichia coli [7],8 µg/mL
O=C(N/N=C/c1ccc2c(c1)OCO2)c1ccc(Nc2nc(N3CCCCC3)nc(N3CCCCC3)n2)cc1,MIC,Staphylococcus aureus [4],25 µg/mL
same,CC50 at 72 h,[5],250 µg/mL
CC1(C)S[C@@H]2[C@H](NC(=O)[C@H](N)c3ccccc3)C(=O)N2[C@H]1C(=O)O.O.O.O [AMPICILLIN TRIHYDRATE],MIC,Escherichia coli [8],25 µg/mL
same,MIC,Staphylococcus aureus [9],12.5 µg/mL
O=C(O)C1=CC(C2CC2)C2=C(CC(F)C3=NN=C(c4ccccc4F)CN32)C1=O (stereo not given),MIC,Staphylococcus aureus [6],0.25 to 8 µg/mL
same,MIC,Escherichia coli [7],0.25 µg/mL
O=C1CSC(=O)N1c1nc(Nc2cccc(Cl)c2)nc(Nc2cccc(Cl)c2)n1,MIC,Proteus vulgaris,3.91 µg/mL
CC(C)Nc1nc(Nc2nc(-c3ccc(Cl)cc3)cs2)nc(NC(C)C)n1,MIC,Candida albicans,5 µg/mL
C=CC1=C(C(=O)O)N2C(=O)[C@@H](NC(=O)/C(=N\OCC(=O)O)c3csc(N)n3)[C@H]2SC1 [CEFIXIME],MIC,Proteus vulgaris,3.91 to 7.81 µg/mL
same,MIC,Escherichia coli [2],3.91 to 7.81 µg/mL
same,MIC,Pseudomonas aeruginosa [3],3.12 to 6.25 µg/mL
S=C(Nc1ccnc2cc(Cl)ccc12)N1CCN(c2nc(Nc3ccc(Cl)cc3)nc(Nc3ccc(Cl)cc3)n2)CC1,zone of inhibition at 5 µg/disc,Bacillus cereus,9 to 17 mm
same,zone of inhibition at 5 µg/disc,Pseudomonas aeruginosa [10],9 to 17 mm
same,zone of inhibition at 5 µg/disc,Staphylococcus aureus [11],16 to 17 mm
same,zone of inhibition at 5 µg/disc,Bacillus subtilis [12],16 to 17 mm
Nc1ccc(C2=NN=C3C(F)CC4=C(C(C5CC5)C=C(C(=O)O)C4=O)N3C2)cc1 (stereo not given),MIC,Staphylococcus aureus [6],0.25 µg/mL
Cc1ccc(Nc2nc(Nc3ccc(C)cc3)nc(N3CCN(C(=S)Nc4ccnc5cc(Cl)ccc45)CC3)n2)cc1,zone of inhibition at 5 µg/disc,Bacillus cereus,9 to 17 mm
same,zone of inhibition at 5 µg/disc,Pseudomonas aeruginosa [10],9 to 17 mm
same,zone of inhibition at 5 µg/disc,Staphylococcus aureus [11],16 to 17 mm
same,zone of inhibition at 5 µg/disc,Bacillus subtilis [12],16 to 17 mm
O=C(O)C1=CC(C2CC2)C2=C(CC(F)C3=NN=C(c4ccc([N+](=O)[O-])cc4)CN32)C1=O (stereo not given),MIC,Staphylococcus aureus [6],0.25 to 8 µg/mL
same,MIC,Escherichia coli [7],0.25 µg/mL
O=C(N/N=C/c1ccccc1)c1ccc(Nc2nc(N3CCCCC3)nc(N3CCCCC3)n2)cc1,MIC,Klebsiella pneumoniae,50 µg/mL
same,CC50 at 72 h,[5],250 µg/mL
O=C(CNc1nc(NCC(=O)N/N=C/c2ccc(Cl)cc2)nc(Nc2ccc(Nc3nc(NCC(=O)N/N=C/c4ccc(Cl)cc4)nc(NCC(=O)N/N=C/c4ccc(Cl)cc4)n3)cc2)n1)N/N=C/c1ccc(Cl)cc1,MIC,Escherichia coli [8],12.5 to 25 µg/mL
same,MIC,Staphylococcus aureus [9],12.5 to 25 µg/mL
O=[N+]([O-])c1ccc(-c2csc(Nc3nc(N4CCOCC4)nc(N4CCOCC4)n3)n2)cc1,MIC,Candida albicans,0.63 to 5 µg/mL
same,MIC,Nakaseomyces glabratus,0.63 to 5 µg/mL
same,MIC,Cryptococcus neoformans,0.63 to 5 µg/mL
same,MIC,Aspergillus niger,0.63 to 5 µg/mL
COc1ccccc1C1=NN=C2C(F)CC3=C(C(C4CC4)C=C(C(=O)O)C3=O)N2C1 (stereo not given),MIC,Staphylococcus aureus [6],1 µg/mL
same,MIC,Escherichia coli [7],0.5 µg/mL
CC1=NN(c2ccccc2)C(C)C1Nc1nnc(Sc2nc(Nc3ccc(F)cc3)nc(Nc3ccc(F)cc3)n2)s1 (stereo not given),MIC,Pseudomonas aeruginosa [3],6.25 µg/mL
O=C(CNc1nc(NCC(=O)N/N=C/c2ccc(Cl)cc2)nc(Nc2ccc(-c3ccc(Nc4nc(NCC(=O)N/N=C/c5ccc(Cl)cc5)nc(NCC(=O)N/N=C/c5ccc(Cl)cc5)n4)cc3)cc2)n1)N/N=C/c1ccc(Cl)cc1,MIC,Escherichia coli [8],12.5 to 25 µg/mL
same,MIC,Staphylococcus aureus [9],12.5 to 25 µg/mL
COc1ccc(C2=NN=C3C(F)CC4=C(C(C5CC5)C=C(C(=O)O)C4=O)N3C2)cc1OC (stereo not given),MIC,Staphylococcus aureus [6],1 µg/mL
same,MIC,Escherichia coli [7],0.5 µg/mL
Nc1nc(Nc2ccccc2)nc(Nc2nc(-c3ccc(Cl)cc3)cs2)n1,MIC,Lacticaseibacillus casei,3.12 µg/mL
O=[N+]([O-])c1ccc(Nc2nc(Nc3ccc([N+](=O)[O-])cc3)nc(N3CCN(C(=S)Nc4ccnc5cc(Cl)ccc45)CC3)n2)cc1,zone of inhibition at 5 µg/disc,Bacillus cereus,9 to 17 mm
same,zone of inhibition at 5 µg/disc,Pseudomonas aeruginosa [10],9 to 17 mm
same,zone of inhibition at 5 µg/disc,Staphylococcus aureus [11],16 to 17 mm
same,zone of inhibition at 5 µg/disc,Bacillus subtilis [12],16 to 17 mm
Cc1ccc(C2=NN=C3C(F)CC4=C(C(C5CC5)C=C(C(=O)O)C4=O)N3C2)cc1 (stereo not given),MIC,Staphylococcus aureus [6],0.5 µg/mL
same,MIC,Escherichia coli [7],0.25 µg/mL
O=C(CNc1nc(NCC(=O)N/N=C/c2ccc(Cl)cc2)nc(N2CCN(c3nc(NCC(=O)N/N=C/c4ccc(Cl)cc4)nc(NCC(=O)N/N=C/c4ccc(Cl)cc4)n3)CC2)n1)N/N=C/c1ccc(Cl)cc1,MIC,Escherichia coli [8],12.5 to 25 µg/mL
same,MIC,Staphylococcus aureus [9],12.5 to 25 µg/mL
S=C(Nc1ccnc2cc(Cl)ccc12)N1CCN(c2nc(Nc3ccc(Br)cc3)nc(Nc3ccc(Br)cc3)n2)CC1,zone of inhibition at 5 µg/disc,Bacillus cereus,9 to 17 mm
same,zone of inhibition at 5 µg/disc,Pseudomonas aeruginosa [10],9 to 17 mm
same,zone of inhibition at 5 µg/disc,Staphylococcus aureus [11],16 to 17 mm
same,zone of inhibition at 5 µg/disc,Bacillus subtilis [12],16 to 17 mm
O=[N+]([O-])c1ccc(-c2csc(Nc3nc(N(c4ccccc4)c4ccccc4)nc(N(c4ccccc4)c4ccccc4)n3)n2)cc1,MIC,Candida albicans,0.32 µg/mL
same,MIC,Nakaseomyces glabratus,0.32 µg/mL
C[C@H]1COc2c(N3CCN(C)CC3)c(F)cc3c(=O)c(C(=O)O)cn1c23.C[C@H]1COc2c(N3CCN(C)CC3)c(F)cc3c(=O)c(C(=O)O)cn1c23.O [LEVOFLOXACIN],MIC,Bacillus subtilis [1],3.12 µg/mL
same,MIC,Escherichia coli [2],3.12 µg/mL
same,zone of inhibition at 5 µg/disc,Staphylococcus aureus [11],14 to 15 mm
same,zone of inhibition at 5 µg/disc,Bacillus subtilis [12],14 to 15 mm
CC1=NN(c2ccccc2)C(C)C1Nc1nnc(Sc2nc(Nc3ccc(Br)cc3)nc(Nc3ccc(Br)cc3)n2)s1 (stereo not given),MIC,Pseudomonas aeruginosa [3],6.25 µg/mL
O=C(O)C1=CC(C2CC2)C2=C(CC(F)C3=NN=C(c4ccc(Cl)cc4)CN32)C1=O (stereo not given),MIC,Staphylococcus aureus [6],8 µg/mL
same,MIC,Escherichia coli [7],8 µg/mL
Nc1nc(Nc2nc(-c3ccc(Cl)cc3)cs2)nc(Sc2ccccc2)n1,MIC,Lacticaseibacillus casei,3.12 µg/mL
CN[C@@H]1[C@H](O[C@H]2[C@H](O[C@H]3[C@H](O)[C@@H](O)[C@H](N=C(N)N)[C@@H](O)[C@@H]3N=C(N)N)O[C@@H](C)[C@]2(O)C=O)O[C@@H](CO)[C@H](O)[C@H]1O [STREPTOMYCIN],MIC,Lacticaseibacillus casei,12.5 µg/mL
